Source: patent US4091006A, “Esters of 3-hydroxyindone compounds” (priority 1975, dated 1978)

Tests used:
[1] = test system: adults and nymphal stages of the two-spotted mite; assay: Mite Foliage Spray Test; type: in vivo, Tetranychus urticae (Koch); parameters: key: 1: no mortality; 3: an approximately 50% mortality; 5: 100% mortality; conditions: 4 days
From the text: (§1) The test procedures were as follows:
(§2) Compositions were rated on the basis of percent kill with a rating of 1 indicating no mortality; 3 signifying an approximately 50% mortality and 5 indicating 100% mortality at the indicated dosage.

[2] = test system: Perennial rye grass, crabgrass, red root pigweed, mustard; assay: Preliminary Herbicide Seed Germination Test; conditions: each rated 1 (no injury) to 5 (no seedlings emerged)
[3] = test system: egg of the two-spotted mite; assay: Mite Ovicide Test; type: in vivo, Tetranychus urticae (Koch); parameters: key to Mite Ova rating: 1: no mortality; 3: an approximately 50% mortality; 5: 100% mortality; conditions: spray on eggs, 4 days
From the text: as §1
The plants were allowed to dry thoroughly.
as §2

[4] = rating/maximum 20: 100 ppm only, four species
[5] = rating/maximum 15: 100 ppm only, crabgrass omitted
[6] = rating/maximum 40: 100 and 1000 ppm, four species, 10-12 days

| Compound | Mite Adult rating [1] | Herbicide (total preemergence rating) [2, 4] | Mite Ova rating [3] | Herbicide (total preemergence rating) [2, 5] | Herbicide (total preemergence rating) [2, 6] |
| --- | --- | --- | --- | --- | --- |
| CCCCCCCCCCCCC(=O)OC1=C(c2cc(C)ccc2C)C(=O)c2ccccc21 [2-(2',5'-Dimethylphenyl)-3-(tridecanoyloxy)indone] | 1 | 4/20 | 5 (100% mortality) | – | – |
| CCc1cccc(CC)c1C1=C(OC(=O)C(C)(C)C)c2ccccc2C1=O [2-(2',6'-Diethylphenyl)-3-(pivaloyloxy)indone] | 5 (100% mortality) | – | 5 (100% mortality) | 12/15 | – |
| COc1cc(C)c(C2=C(OC(=O)C(C)(C)C)c3ccccc3C2=O)c(C)c1 [2-(2',6'-Dimethyl-4'-methoxyphenyl)-3-(pivaloyloxy)indone] | 3 (an approximately 50% mortality) | – | 3 (an approximately 50% mortality) | – | 24/40 |
| Cc1cc(C(C)(C)C)cc(C)c1C1=C(OC(=O)C(C)(C)C)c2ccccc2C1=O [2-(2',6'-Dimethyl-4'-t-butylphenyl)-3-(pivaloyloxy)indone] | 1 | – | 1 | – | 9/40 |
| Cc1cccc(C)c1C1=C(OC(=O)C(C)(C)C)c2ccccc2C1=O [2-(2',6'-Dimethylphenyl)-3-(pivaloyloxy)indone] | 5 (100% mortality) | – | 5 (100% mortality) | – | 31/40 |
| CC(C)(C)C(=O)OC1=C(c2ccccc2Br)C(=O)c2ccccc21 [2-(2'-Bromophenyl)-3-(pivaloyloxy)indone] | 5 (100% mortality) | – | 5 (100% mortality) | – | 14/40 |
| Cc1cccc(Cl)c1C1=C(OC(=O)C(C)(C)C)c2ccccc2C1=O [2-(2'-Chloro-6'-methylphenyl)-3-(pivaloyloxy)indone] | 5 (100% mortality) | – | 5 (100% mortality) | – | 33/40 |
| CCCC(C)C(=O)OC1=C(c2ccccc2Cl)C(=O)c2ccccc21 (stereo not drawn) [2-(2'-Chlorophenyl)-3-(2-methylpentanoyloxy)indone] | 5 (100% mortality) | 4/20 | 5 (100% mortality) | – | – |
| CC(C)(C)C(=O)OC1=C(c2ccccc2Cl)C(=O)c2ccccc21 [2-(2'-Chlorophenyl)-3-(pivaloyloxy)indone] | 5 (100% mortality) | – | 5 (100% mortality) | – | 18/40 |
| CCCCCCCCCCCCCCCCCC(=O)OC1=C(c2ccccc2Cl)C(=O)c2ccccc21 [2-(2'-Chlorophenyl)-3-(stearoyloxy)indone] | 1 | 4/20 | 5 (100% mortality) | – | – |
| CCc1cccc(C)c1C1=C(OC(=O)C(C)(C)C)c2ccccc2C1=O [2-(2'-Ethyl-6'-methylphenyl)-3-(pivaloyloxy)indone] | 5 (100% mortality) | – | 5 (100% mortality) | 14/15 | – |
| CCc1ccccc1C1=C(OC(=O)C(C)(C)C)c2ccccc2C1=O [2-(2'-Ethylphenyl)-3-pivaloyloxyindone] | 1 | 4/20 | 1 | – | – |
| COc1ccccc1C1=C(OC(=O)C(C)(C)C)c2ccccc2C1=O [2-(2'-Methoxyphenyl)-3-(pivaloyloxy)indone] | 1 | – | 1 | – | 8/40 |
| CCCCCCCCCCCCCCCC(=O)OC1=C(c2ccccc2C)C(=O)c2ccccc21 [2-(2'-Methylphenyl)-3-(palmitoyloxy)indone] | 3 (an approximately 50% mortality) | 4/20 | 5 (100% mortality) | – | – |
| Cc1ccccc1C1=C(OC(=O)C(C)(C)C)c2ccccc2C1=O [2-(2'-Methylphenyl)-3-(pivaloyloxy)indone] | 5 (100% mortality) | – | 5 (100% mortality) | – | 20/40 |
| CC(C)(C)C(=O)OC1=C(c2ccccc2C(F)(F)F)C(=O)c2ccccc21 [2-(2'-Trifluoromethylphenyl)-3-pivaloyloxy indone] | 1 | 4/20 | 1 | – | – |
| CC(C)(C)C(=O)OC1=C(c2ccc(Cl)cc2)C(=O)c2ccccc21 [2-(4'-Chlorophenyl)-3-(pivaloyloxy)indone] | 1 | 4/20 | 1 | – | – |
| CCCCCCCCCCCCCCCC(=O)OC1=C(c2ccc(C(C)C)cc2)C(=O)c2ccccc21 [2-(4'-isopropylphenyl)-3-(palmitoyloxy)indone] | 1 | 4/20 | 1 | – | – |

| Compound | Mite Adult rating [1] | Herbicide (total preemergence rating) [2, 4] | Mite Ova rating [3] | Herbicide (total preemergence rating) [2, 5] | Herbicide (total preemergence rating) [2, 6] |
| --- | --- | --- | --- | --- | --- |
| CC(C)c1ccc(C2=C(OC(=O)C(C)(C)C)c3ccccc3C2=O)cc1 [2-(4'-isopropylphenyl)-3-(pivaloyloxy)indone] | 1 | 4/20 | 1 | – | – |
| CC(=O)OC1=C(c2ccccc2)C(=O)c2ccccc21 [2-Phenyl-3-(acetoxy)indone] | 1 | – | 1 | – | 8/40 |
| O=C(OC1=C(c2ccccc2)C(=O)c2ccccc21)c1ccccc1 [2-Phenyl-3-(benzoyloxy)indone] | 1 | 4/20 | 1 | – | – |
| CC(C)(C)C(=O)OC1=C(c2ccccc2)C(=O)c2ccccc21 [2-Phenyl-3-(pivaloyloxy)indone] | 1 | – | 1 | – | 8/40 |
| CCCCCCCCCCCCCCCCCC(=O)OC1=C(c2ccccc2)C(=O)c2ccccc21 [2-Phenyl-3-(stearoyloxy)indone] | 1 | 4/20 | 1 | – | – |
| Cc1cc(C)c(C2=C(OC(=O)c3c(Cl)ccc(Cl)c3Cl)c3ccccc3C2=O)c(C)c1 [3-(2,3,6-Trichlorobenzoyloxy)-2-(2',4',6'-trimethylphenyl)indone] | 1 | – | 3 (an approximately 50% mortality) | – | 21/40 |
| O=C1C(c2c(Cl)cccc2Cl)=C(OC(=O)c2c(Cl)ccc(Cl)c2Cl)c2ccccc21 [3-(2,3,6-Trichlorobenzoyloxy)-2-(2',6'-dichlorophenyl)indone] | 5 (100% mortality) | – | 5 (100% mortality) | – | 20/40 |
| Cc1cc(C)c(C(=O)OC2=C(c3c(C)cc(C)cc3C)C(=O)c3ccccc32)c(C)c1 [3-(2,4,6-Trimethylbenzoyloxy)-2-(2',4',6'-trimethylphenyl)indone] | 1 | – | 1 | 10/15 | – |
| Cc1cc(C)c(C(=O)OC2=C(c3c(Cl)cccc3Cl)C(=O)c3ccccc32)c(C)c1 [3-(2,4,6-Trimethylbenzoyloxy)-2-(2',6'-dichlorophenyl)indone] | 1 | – | 1 | 6/15 | – |
| Cc1cc(C)c(C2=C(OC(=O)c3ccc(Cl)cc3Cl)c3ccccc3C2=O)c(C)c1 [3-(2,4-Dichlorobenzoyloxy)-2-(2',4',6'-trimethylphenyl)indone] | 5 (100% mortality) | – | 5 (100% mortality) | – | 32/40 |
| O=C(OC1=C(c2c(Cl)cccc2Cl)C(=O)c2ccccc21)c1ccc(Cl)cc1Cl [3-(2,4-Dichlorobenzoyloxy)-2-(2',6'-dichlorophenyl)indone] | 5 (100% mortality) | – | 5 (100% mortality) | – | 28/40 |
| Cc1ccc(C(=O)OC2=C(c3c(C)cc(C)cc3C)C(=O)c3ccccc32)c(C)c1 [3-(2,4-Dimethylbenzoyloxy)-2-(2',4',6'-trimethylphenyl)indone] | 1 | – | 5 (100% mortality) | 11/15 | – |
| Cc1ccc(C(=O)OC2=C(c3c(Cl)cccc3Cl)C(=O)c3ccccc32)c(C)c1 [3-(2,4-Dimethylbenzoyloxy)-2-(2',6'-dichlorophenyl)indone] | 1 | 5/20 | 3 (an approximately 50% mortality) | – | – |
| Cc1cc(C)c(C2=C(OC(=O)c3c(Cl)cccc3Cl)c3ccccc3C2=O)c(C)c1 [3-(2,6-Dichlorobenzoyloxy)-2-(2',4',6'-trimethylphenyl)indone] | 1 | – | 1 | – | 8/40 |
| O=C1C(c2c(Cl)cccc2Cl)=C(OC(=O)c2c(Cl)cccc2Cl)c2ccccc21 [3-(2,6-Dichlorobenzoyloxy)-2-(2',6'-dichlorophenyl)indone] | 1 | – | 1 | – | 8/40 |
| COc1cccc(OC)c1C(=O)OC1=C(c2c(C)cc(C)cc2C)C(=O)c2ccccc21 [3-(2,6-Dimethoxybenzoyloxy)-2-(2',4',6'-trimethylphenyl)indone] | 1 | 4/20 | 1 | – | – |
| COc1cccc(OC)c1C(=O)OC1=C(c2c(Cl)cccc2Cl)C(=O)c2ccccc21 [3-(2,6-Dimethoxybenzoyloxy)-2-(2',6'-dichlorophenyl)indone] | 1 | – | 1 | 12/15 | – |
